Tests used:
Format in all cases: in vivo
corn (Zea mays, ZEAMX) = assay: Test A pre-emergence, corn; details: after 13 d
Method in brief: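 Seeds sown in pots of standard soil and sprayed one day later, pre-emergence, at 15.625, 62.5 or 250 g/ha in acetone/water (50:50) with 0.5% Tween 20. Grown in glasshouse at 24/16 °C, 14 h light, 65% humidity. Damage scored after 13 d (0 none, 100 total).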

wheat = assay: Test D pre-emergence, wheat seed treated with a herbicide safener; details: 100=total damage, 0=no damage
Method in brief: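 Damage, on a scale where 100 is total and 0 is none, was scored 15 d after post-emergence spraying (about 12-day-old plants) or 20 DAA after pre-emergence spraying (day 1). Maize and wheat came from herbicide-safener-treated seed and were kept in a glasshouse (24/18 or 20/16 °C, 16 h light, 65% humidity). The spray liquid was the test formulation diluted in 0.2% v/v aqueous adjuvant.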

[1] = tested on: ivy-leaved morning glory (Ipomoea hederacea, IPOHE); assay: Test A post-emergence, ivy-leaved morning glory; details: after 13 d
Method in brief: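 Plants were grown 8 d in a glasshouse (24/16° C day/night, 14 h light, 65% humidity), then sprayed post-emergence at 15.625, 62.5 or 250 g/ha in acetone/water (50:50) with 0.5% Tween 20. Damage was scored visually after 13 d (0 = none, 100 = total).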

plants = assay: Test D post-emergence, other plants of Tables D2 and D4; details: "Cereals" Postemergent, evaluated after 15 d
Method in brief: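 Damage was rated visually from 0 (none) to 100 (total), at 20 DAA for pre-emergence and 15 d for post-emergence. Plants grew from safener-treated seed in a glasshouse at 24/18° C. or 20/16° C. day/night, 65% humidity, watered twice daily.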

CN1CC(c2cc(C(F)(F)F)n(C)n2)C(C(=O)Nc2ccc(F)c(F)c2F)C1=O (racemic) [Compound 17]
90: damage to plant (100=total damage; 0=no damage) ZEAMX (corn (Zea mays, ZEAMX); Pre-Emergence at 250 g/ha) | damage to plant, TRZAW (wheat; rate 500, 20 DAA) | POAAN damage rating (100=total damage to plant; 0=no damage to plant) (plants; Rates 500)
50: damage to plant, TRZAW (wheat; rate 130, 20 DAA) | ALOMY damage rating (100=total damage to plant; 0=no damage to plant) (plants; Rates 250) | CHEAL damage rating (100=total damage to plant; 0=no damage to plant) (plants; Rates 500)
20: BEAVA damage rating (100=total damage to plant; 0=no damage to plant) (plants; Rates 250) | BEAVA damage rating (100=total damage to plant; 0=no damage to plant) (plants; Rates 500) | BROTE damage rating (100=total damage to plant; 0=no damage to plant) (plants; Rates 500) | BRSNN damage rating (100=total damage to plant; 0=no damage to plant) (plants; Rates 250) | BRSNN damage rating (100=total damage to plant; 0=no damage to plant) (plants; Rates 500) | KCHSC damage rating (100=total damage to plant; 0=no damage to plant) (plants; Rates 500)
60: damage to plant (100=total damage; 0=no damage) ZEAMX (corn (Zea mays, ZEAMX); Pre-Emergence at 15.625 g/ha) | damage to plant, TRZAW (wheat; rate 250, 20 DAA) | AVEFA damage rating (100=total damage to plant; 0=no damage to plant) (plants; Rates 500) | CHEAL damage rating (100=total damage to plant; 0=no damage to plant) (plants; Rates 250) | LOLPE damage rating (100=total damage to plant; 0=no damage to plant) (plants; Rates 500) | POAAN damage rating (100=total damage to plant; 0=no damage to plant) (plants; Rates 130) | SINAR damage rating (100=total damage to plant; 0=no damage to plant) (plants; SINAR, Rates 500)
70: damage to plant (100=total damage; 0=no damage) ZEAMX (corn (Zea mays, ZEAMX); Pre-Emergence at 62.5 g/ha) | ALOMY damage rating (100=total damage to plant; 0=no damage to plant) (plants; Rates 500)
80: HORVW damage rating (100=total damage to plant; 0=no damage to plant) (plants; Rates 500) | POAAN damage rating (100=total damage to plant; 0=no damage to plant) (plants; Rates 250)
10: BEAVA damage rating (100=total damage to plant; 0=no damage to plant) (plants; Rates 130) | BROTE damage rating (100=total damage to plant; 0=no damage to plant) (plants; Rates 250) | HORVW damage rating (100=total damage to plant; 0=no damage to plant) (plants; Rates 130) | POLCO damage rating (100=total damage to plant; 0=no damage to plant) (plants; Rates 500)
30: ALOMY damage rating (100=total damage to plant; 0=no damage to plant) (plants; Rates 130) | AVEFA damage rating (100=total damage to plant; 0=no damage to plant) (plants; Rates 250) | GALAP damage rating (100=total damage to plant; 0=no damage to plant) (plants; Rates 500) | LOLPE damage rating (100=total damage to plant; 0=no damage to plant) (plants; Rates 250)
40: GALAP damage rating (100=total damage to plant; 0=no damage to plant) (plants; Rates 250) | HORVW damage rating (100=total damage to plant; 0=no damage to plant) (plants; Rates 250)
0: damage to plant, TRZAW (wheat; rate 15, 20 DAA) | damage to plant, TRZAW (wheat; rate 30, 20 DAA) | damage to plant, TRZAW (wheat; rate 60, 20 DAA) | damage to plant (100=total damage; 0=no damage) IPOHE ([1]; Post-Emergence at 15.625 g/ha) | damage to plant (100=total damage; 0=no damage) IPOHE ([1]; Post-Emergence at 62.5 g/ha) | damage to plant (100=total damage; 0=no damage) IPOHE ([1]; Post-Emergence at 250 g/ha) | AVEFA damage rating (100=total damage to plant; 0=no damage to plant) (plants; Rates 130) | BROTE damage rating (100=total damage to plant; 0=no damage to plant) (plants; Rates 130) | BRSNN damage rating (100=total damage to plant; 0=no damage to plant) (plants; Rates 130) | CHEAL damage rating (100=total damage to plant; 0=no damage to plant) (plants; Rates 130) | GALAP damage rating (100=total damage to plant; 0=no damage to plant) (plants; Rates 130) | KCHSC damage rating (100=total damage to plant; 0=no damage to plant) (plants; Rates 130) | KCHSC damage rating (100=total damage to plant; 0=no damage to plant) (plants; Rates 250) | LOLPE damage rating (100=total damage to plant; 0=no damage to plant) (plants; Rates 130) | POLCO damage rating (100=total damage to plant; 0=no damage to plant) (plants; Rates 130) | POLCO damage rating (100=total damage to plant; 0=no damage to plant) (plants; Rates 250) | STEME damage rating (100=total damage to plant; 0=no damage to plant) (plants; Rates 130) | STEME damage rating (100=total damage to plant; 0=no damage to plant) (plants; Rates 250)

From US20220281848A1, “PYRAZOLE-SUBSTITUTED PYRROLIDINONES AS HERBICIDES” (FMC Corporation, priority 2019, published 2022)
